≈ marks a conversion by molar mass, not a printed value. Read-outs that look alike come from different tables or passages of the source.
Tests used:
F. mortiferum ATCC9817 = assay: MIC against anaerobic bacteria; format: cell-based; details: Fusobacterium mortiferum
C. difficile ATCC17857 = assay: MIC against anaerobic bacteria; format: cell-based; details: Clostridioides difficile
E. coli NIHJ JC-2 = assay: MIC against aerobic bacteria; details: Escherichia coli, NIHJJC2
B. bifidum JCM1122 = assay: MIC against anaerobic bacteria; format: cell-based; details: Bifidobacterium bifidum
[1] = filter paper electrophoresis and bioautography (acidic property); format: physicochemical
Excerpt: Other physicochemical properties of PB-6042s in the form of sodium salt are listed below.

P. anaerobius B-38 = assay: MIC against anaerobic bacteria; format: cell-based; details: Peptostreptococcus anaerobius, B38
K. pneumoniae SR1 = assay: MIC against aerobic bacteria; details: Klebsiella pneumoniae
[2] = system: B. melaninogenicus GAI0413; assay: MIC against anaerobic bacteria; format: cell-based
B. distasonis JU-11-1 = assay: MIC against anaerobic bacteria; format: cell-based; details: Parabacteroides distasonis, JU111
[3] = system: S. constellatus ATCC27823; assay: MIC against anaerobic bacteria; format: cell-based; details: Streptococcus constellatus
B. fragilis ATCC25285 = assay: MIC against anaerobic bacteria; format: cell-based; details: Bacteroides fragilis; B. fragilis ATCC25285; read-out: MIC
P. acens ATCC11827 = assay: MIC against anaerobic bacteria; format: cell-based
L. ruminis ATCC27780 = assay: MIC against anaerobic bacteria; format: cell-based; details: L. ruminis ATCC27780; read-out: MIC
L. plantarum JCM1100 = assay: MIC against anaerobic bacteria; format: cell-based; details: Lactiplantibacillus plantarum
anaerobic bacteria = assay: antibacterial activity against anaerobic bacteria (summary); format: cell-based; details: in words
B. adolescentis JCM1250 = assay: MIC against anaerobic bacteria; format: cell-based; details: Bifidobacterium adolescentis
F. nucleatum ATCC25586 = assay: MIC against anaerobic bacteria; format: cell-based; details: Fusobacterium nucleatum
E. limosum ATCC8486 = assay: MIC against anaerobic bacteria; format: cell-based; details: Eubacterium limosum; E. limosum ATCC8486; read-out: MIC
P. prevotii ATCC9321 = assay: MIC against anaerobic bacteria; format: cell-based; details: Anaerococcus prevotii, ATCC9321
[4] = system: P. asaccharolyticus ATCC14963; assay: MIC against anaerobic bacteria; format: cell-based; details: Peptoniphilus asaccharolyticus, ATCC14963
B. ovatus 2505 = assay: MIC against anaerobic bacteria; format: cell-based; details: Bacteroides ovatus
B. longum ATCC15707 = assay: MIC against anaerobic bacteria; format: cell-based; details: Bifidobacterium longum
E. aerofaciens ATCC25986 = assay: MIC against anaerobic bacteria; format: cell-based; details: Collinsella aerofaciens, ATCC25986
F. necrophorum ATCC25286 = assay: MIC against anaerobic bacteria; format: cell-based; details: Fusobacterium necrophorum
P. vulgaris CN-329 = assay: MIC against aerobic bacteria; details: Proteus vulgaris, CN329
P. aeruginosa A25619 = assay: MIC against aerobic bacteria; details: Pseudomonas aeruginosa
S. pneumoniae TYPE 1 = assay: MIC against aerobic bacteria; details: Streptococcus pneumoniae, TYPE1
B. fragilis GM7000 = assay: MIC against anaerobic bacteria; format: cell-based; details: Bacteroides fragilis
E. lentum II-1 = assay: MIC against anaerobic bacteria; format: cell-based; details: Eggerthella lenta, II1
C. perfringens ATCC13124 = assay: microbe, parasite or virus in culture; format: cell-based; details: Clostridium perfringens
[5] = system: B. thetaiotaomicron WAL3304; assay: MIC against anaerobic bacteria; format: cell-based; details: Bacteroides thetaiotaomicron
S. pyogenes C-203 = assay: MIC against aerobic bacteria; details: Streptococcus pyogenes, C203
F. varium ATCC8501 = assay: MIC against anaerobic bacteria; format: cell-based; details: Fusobacterium varium
B. vulgatus ATCC29327 = assay: MIC against anaerobic bacteria; format: cell-based; details: Phocaeicola vulgatus
S. aureus FDA JC-1 = assay: MIC against aerobic bacteria; details: Staphylococcus aureus, FDAJC1
P. micros VPI5464-1 = assay: MIC against anaerobic bacteria; format: cell-based; details: Parvimonas micra, VPI54641
S. aureus SR14(R) = assay: MIC against aerobic bacteria; details: Staphylococcus aureus
C. perfringens SAKAI = assay: microbe, parasite or virus in culture; format: cell-based; details: Clostridium perfringens
[6] = B. melaninogenicus GAI0413, read-out: MIC
[7] = B. distasonis JU-11-1, read-out: MIC
[8] = B. fragilis GM7000, read-out: MIC
[9] = B. thetaiotaomicron WAL3304, read-out: MIC
[10] = B. vulgatus ATCC29327, read-out: MIC
[11] = F. mortiferum ATCC9817, read-out: MIC
[12] = B. bifidum JCM1122, read-out: MIC
[13] = L. plantarum JCM1100, read-out: MIC

| SMILES | MIC (C. difficile ATCC17857) | MIC (E. coli NIHJ JC-2) | acidic property [1] | MIC (P. anaerobius B-38) | MIC (K. pneumoniae SR1) | MIC [3] | MIC (B. fragilis ATCC25285) | MIC (P. acens ATCC11827) | MIC (L. ruminis ATCC27780) | growth inhibition of anaerobic bacteria (anaerobic bacteria) | MIC (F. nucleatum ATCC25586) | MIC (E. limosum ATCC8486) | MIC (P. prevotii ATCC9321) | MIC [4] | MIC (E. aerofaciens ATCC25986) | MIC (F. necrophorum ATCC25286) | MIC (P. vulgaris CN-329) | MIC (P. aeruginosa A25619) | MIC (S. pneumoniae TYPE 1) | MIC (C. perfringens ATCC13124) | also measured |
| --- | --- | --- | --- | --- | --- | --- | --- | --- | --- | --- | --- | --- | --- | --- | --- | --- | --- | --- | --- | --- | --- |
| C=C1OC(=O)C(C(=O)CCCCCCCCC)=C1O [PB-6042A] | 3.13 µg/mL (≈ 11.8 µM) | > 100 µg/mL | acidic substances | 3.13 µg/mL (≈ 11.8 µM) | > 100 µg/mL | 3.13 µg/mL (≈ 11.8 µM) | 3.13 µg/mL (≈ 11.8 µM) | 3.13 µg/mL (≈ 11.8 µM) | 6.25 µg/mL (≈ 23.5 µM) | inhibit the growth of anaerobic bacteria, selectively | 6.25 µg/mL (≈ 23.5 µM) | 6.25 µg/mL (≈ 23.5 µM) | 12.5 µg/mL (≈ 46.9 µM) | 12.5 µg/mL (≈ 46.9 µM) | 12.5 µg/mL (≈ 46.9 µM) | 6.25 µg/mL (≈ 23.5 µM) | > 100 µg/mL | > 100 µg/mL | 25 µg/mL (≈ 93.9 µM) | 12.5 µg/mL (≈ 46.9 µM) | MIC (F. mortiferum ATCC9817; ATCC9817): 12.5 µg/mL (≈ 46.9 µM); MIC (B. bifidum JCM1122; JCM1122): 12.5 µg/mL (≈ 46.9 µM); MIC [2, 6]: 6.25 µg/mL (≈ 23.5 µM); MIC (B. distasonis JU-11-1; [7]): 3.13 µg/mL (≈ 11.8 µM); MIC (L. plantarum JCM1100; JCM1100): 12.5 µg/mL (≈ 46.9 µM); MIC (B. adolescentis JCM1250; JCM1250): 12.5 µg/mL (≈ 46.9 µM); MIC (B. ovatus 2505; B. ovatus 2505, read-out: MIC): 3.13 µg/mL (≈ 11.8 µM); MIC (B. longum ATCC15707; B. longum ATCC15707, read-out: MIC): 6.25 µg/mL (≈ 23.5 µM); MIC (B. fragilis GM7000; [8]): 3.13 µg/mL (≈ 11.8 µM); MIC (E. lentum II-1; E. lentum II-1, read-out: MIC): 6.25 µg/mL (≈ 23.5 µM); MIC [5, 9]: 3.13 µg/mL (≈ 11.8 µM); MIC (S. pyogenes C-203): 25 µg/mL (≈ 93.9 µM); MIC (F. varium ATCC8501): > 100 µg/mL; MIC (B. vulgatus ATCC29327; [10]): 3.13 µg/mL (≈ 11.8 µM); MIC (S. aureus FDA JC-1): 25 µg/mL (≈ 93.9 µM); MIC (P. micros VPI5464-1): 1.56 µg/mL (≈ 5.86 µM); MIC (S. aureus SR14(R)): > 100 µg/mL; MIC (C. perfringens SAKAI): 12.5 µg/mL (≈ 46.9 µM) |
| C=C1OC(=O)C(C(=O)CCC/C=C\CCCCCC)=C1O [PB-6042B] | 1.56 µg/mL (≈ 5.34 µM) | > 100 µg/mL | acidic substances | 3.13 µg/mL (≈ 10.7 µM) | > 100 µg/mL | 1.56 µg/mL (≈ 5.34 µM) | 3.13 µg/mL (≈ 10.7 µM) | 3.13 µg/mL (≈ 10.7 µM) | 3.13 µg/mL (≈ 10.7 µM) | inhibit the growth of anaerobic bacteria, selectively | 12.5 µg/mL (≈ 42.8 µM) | 3.13 µg/mL (≈ 10.7 µM) | 6.25 µg/mL (≈ 21.4 µM) | 6.25 µg/mL (≈ 21.4 µM) | 6.25 µg/mL (≈ 21.4 µM) | 12.5 µg/mL (≈ 42.8 µM) | > 100 µg/mL | > 100 µg/mL | 12.5 µg/mL (≈ 42.8 µM) | 6.25 µg/mL (≈ 21.4 µM) | MIC (F. mortiferum ATCC9817; [11]): 25 µg/mL (≈ 85.5 µM); MIC (B. bifidum JCM1122; [12]): 12.5 µg/mL (≈ 42.8 µM); MIC ([2]; GAI0413): 6.25 µg/mL (≈ 21.4 µM); MIC (B. distasonis JU-11-1; [7]): 3.13 µg/mL (≈ 10.7 µM); MIC (L. plantarum JCM1100; [13]): 12.5 µg/mL (≈ 42.8 µM); MIC (B. adolescentis JCM1250; JCM1250): 6.25 µg/mL (≈ 21.4 µM); MIC (B. ovatus 2505; B. ovatus 2505, read-out: MIC): 3.13 µg/mL (≈ 10.7 µM); MIC (B. longum ATCC15707; ATCC15707): 6.25 µg/mL (≈ 21.4 µM); MIC (B. fragilis GM7000; [8]): 3.13 µg/mL (≈ 10.7 µM); MIC (E. lentum II-1): 6.25 µg/mL (≈ 21.4 µM); MIC [5, 9]: 3.13 µg/mL (≈ 10.7 µM); MIC (S. pyogenes C-203): 12.5 µg/mL (≈ 42.8 µM); MIC (F. varium ATCC8501): > 100 µg/mL; MIC (B. vulgatus ATCC29327; [10]): 3.13 µg/mL (≈ 10.7 µM); MIC (S. aureus FDA JC-1): 12.5 µg/mL (≈ 42.8 µM); MIC (P. micros VPI5464-1): 1.56 µg/mL (≈ 5.34 µM); MIC (S. aureus SR14(R)): 12.5 µg/mL (≈ 42.8 µM); MIC (C. perfringens SAKAI): 6.25 µg/mL (≈ 21.4 µM) |
| C=C1OC(=O)C(C(=O)CCCCCCCCCCC)=C1O [PB-6042C] | 0.78 µg/mL (≈ 2.65 µM) | > 100 µg/mL | acidic substances | 0.78 µg/mL (≈ 2.65 µM) | > 100 µg/mL | 0.78 µg/mL (≈ 2.65 µM) | 1.56 µg/mL (≈ 5.3 µM) | 0.78 µg/mL (≈ 2.65 µM) | 1.56 µg/mL (≈ 5.3 µM) | inhibit the growth of anaerobic bacteria, selectively | 12.5 µg/mL (≈ 42.5 µM) | 1.56 µg/mL (≈ 5.3 µM) | 3.13 µg/mL (≈ 10.6 µM) | 3.13 µg/mL (≈ 10.6 µM) | 3.13 µg/mL (≈ 10.6 µM) | 12.5 µg/mL (≈ 42.5 µM) | > 100 µg/mL | > 100 µg/mL | 12.5 µg/mL (≈ 42.5 µM) | 3.13 µg/mL (≈ 10.6 µM) | MIC (F. mortiferum ATCC9817; [11]): 25 µg/mL (≈ 84.9 µM); MIC (B. bifidum JCM1122; [12]): 6.25 µg/mL (≈ 21.2 µM); MIC [2, 6]: 6.25 µg/mL (≈ 21.2 µM); MIC (B. distasonis JU-11-1): 3.13 µg/mL (≈ 10.6 µM); MIC (L. plantarum JCM1100; [13]): 6.25 µg/mL (≈ 21.2 µM); MIC (B. adolescentis JCM1250; B. adolescentis JCM1250, read-out: MIC): 0.78 µg/mL (≈ 2.65 µM); MIC (B. ovatus 2505; 2505): 3.13 µg/mL (≈ 10.6 µM); MIC (B. longum ATCC15707; ATCC15707): 3.13 µg/mL (≈ 10.6 µM); MIC (B. fragilis GM7000; GM7000): 3.13 µg/mL (≈ 10.6 µM); MIC (E. lentum II-1): 3.13 µg/mL (≈ 10.6 µM); MIC ([5]; WAL3304): 3.13 µg/mL (≈ 10.6 µM); MIC (S. pyogenes C-203): 12.5 µg/mL (≈ 42.5 µM); MIC (F. varium ATCC8501): > 100 µg/mL; MIC (B. vulgatus ATCC29327; ATCC29327): 3.13 µg/mL (≈ 10.6 µM); MIC (S. aureus FDA JC-1): > 100 µg/mL; MIC (P. micros VPI5464-1): 0.78 µg/mL (≈ 2.65 µM); MIC (S. aureus SR14(R)): > 100 µg/mL; MIC (C. perfringens SAKAI): 3.13 µg/mL (≈ 10.6 µM) |
